pIC50: −log10 of the molar value. Activity calls are given as the source filed them.
Columns and labels:
[1] = NIH-3T3 fibroblast cytotoxicity, dose response, cytotoxicity control, cell-based, fluorescence, Alamar Blue, secondary assay (AID 2327); type: functional;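 also: NIH-3T3 mouse fibroblasts cultured with fluconazole at 8 µg/mL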
HeLa = test: Cytotoxicity counterscreen assay for transcriptional activators of heat shock protein 70 (Hsp70). [Related pubchem assays: 1203, 1252 ]; type: functional; conditions: Homo sapiens;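 also: cells exposed to compound for 16 hours before readout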
Beta-galactosidase [2] = target: T1, Beta-galactosidase (Escherichia coli, UniProt Q8VNN2); test: PubChem AID 485352; type: functional
[3] = C. albicans growth with fluconazole, confirmation, fluorescence, retest (AID 2467); type: functional, cell-based
[4] = target: T2, Type-1 angiotensin II receptor (Homo sapiens, UniProt P30556); test: AT1 receptor antagonists, dose response, selectivity assay for APJ receptor antagonist project, cell-based, uHTS hits (AID 463214); type: functional;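 also: antagonist potency against angiotensin II stimulated AT1 response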
T2 sequence (P30556 whole entry): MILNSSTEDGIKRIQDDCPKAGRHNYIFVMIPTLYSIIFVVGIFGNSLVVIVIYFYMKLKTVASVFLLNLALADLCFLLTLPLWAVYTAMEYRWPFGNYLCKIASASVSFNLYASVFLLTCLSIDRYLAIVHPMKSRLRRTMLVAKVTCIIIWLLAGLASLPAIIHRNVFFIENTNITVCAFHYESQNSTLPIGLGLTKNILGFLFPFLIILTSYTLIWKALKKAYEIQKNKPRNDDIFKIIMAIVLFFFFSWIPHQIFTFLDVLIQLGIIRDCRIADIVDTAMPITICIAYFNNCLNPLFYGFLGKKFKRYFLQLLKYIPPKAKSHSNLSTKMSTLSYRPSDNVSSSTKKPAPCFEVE

[5] = target: T3, Kappa-type opioid receptor (Homo sapiens, UniProt P41145); type: functional
Beta-galactosidase [6] = target: T1, Beta-galactosidase; type: functional
[7] = target: Sphingosine 1-phosphate receptor 4 (Homo sapiens, UniProt O95977); test: Fluorescence dose response cell-based high throughput screening assay for antagonists of the Sphingosine 1-Phosphate Receptor 4 (S1P4). [Related pubchem assays: 1524 (Confirmation in triplicates.), 1510 (Primary screen.)]; type: functional
[8] = target: T3, Kappa-type opioid receptor; type: functional; remark: listed apart in the source
[9] = target: Sphingosine 1-phosphate receptor 1 (Homo sapiens, UniProt P21453); type: functional;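 also: Tango beta-arrestin reporter U2OS cells stimulated with S1P near its EC80; inhibitor potency meaning antagonism of receptor activation by the natural agonist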
[10] = target: T4, Replicative DNA helicase DnaB (Mycobacterium tuberculosis, UniProt P9WMR3); test: DnaB intein splicing inhibitors, dose response, biochemical, cell-free fluorescence (AID 449749); type: functional
T4 sequence (P9WMR3 whole entry): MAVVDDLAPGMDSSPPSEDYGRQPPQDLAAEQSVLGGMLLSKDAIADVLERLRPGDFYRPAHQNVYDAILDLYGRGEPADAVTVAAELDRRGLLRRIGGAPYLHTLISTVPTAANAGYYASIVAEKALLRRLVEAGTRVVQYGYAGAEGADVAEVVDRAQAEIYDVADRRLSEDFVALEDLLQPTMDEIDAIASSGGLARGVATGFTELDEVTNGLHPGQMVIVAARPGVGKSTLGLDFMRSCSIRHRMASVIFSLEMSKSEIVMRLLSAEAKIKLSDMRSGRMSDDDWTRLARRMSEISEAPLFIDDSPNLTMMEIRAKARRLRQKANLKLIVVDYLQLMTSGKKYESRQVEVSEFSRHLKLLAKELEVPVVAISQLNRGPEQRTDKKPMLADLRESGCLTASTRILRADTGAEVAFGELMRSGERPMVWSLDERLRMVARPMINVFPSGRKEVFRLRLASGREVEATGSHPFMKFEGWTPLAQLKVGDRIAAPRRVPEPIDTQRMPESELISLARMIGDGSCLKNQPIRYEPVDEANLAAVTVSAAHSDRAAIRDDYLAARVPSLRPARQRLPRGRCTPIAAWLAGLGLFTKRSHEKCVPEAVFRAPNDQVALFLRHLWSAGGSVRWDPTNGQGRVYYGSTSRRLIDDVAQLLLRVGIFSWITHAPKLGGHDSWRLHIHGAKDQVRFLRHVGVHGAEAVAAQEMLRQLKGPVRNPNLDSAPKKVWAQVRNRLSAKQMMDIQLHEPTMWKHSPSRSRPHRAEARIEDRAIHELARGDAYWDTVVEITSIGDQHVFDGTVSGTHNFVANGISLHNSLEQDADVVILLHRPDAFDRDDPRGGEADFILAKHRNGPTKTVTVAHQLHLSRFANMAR

[11] = target: Heat shock protein HSP 90-alpha (Homo sapiens, UniProt P07900); type: functional, organism-based
BJ = test: cytotoxicity toward Ras-transformed BJeLR fibroblasts, dose response, cell-based, alamar blue fluorescence, cherrypicked samples (AID 2631); type: functional; conditions: Homo sapiens;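 also: confirmatory dose-response assay in RAS-dependent BJ fibroblasts engineered with TERT, LT and ST, with cytotoxicity read by fluorescence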
Protein RecA = target: T5, Protein RecA (Mycobacterium tuberculosis, UniProt P9WHJ3); test: Fluorescence Cell-Free Homogeneous Dose Retest to Identify Inhibitors of RecA-Intein Splicing Activity. [Related pubchem assays (depositor defined):AID2097, AID2223, AID489010, AID492950]; type: functional
T5 sequence (P9WHJ3 whole entry): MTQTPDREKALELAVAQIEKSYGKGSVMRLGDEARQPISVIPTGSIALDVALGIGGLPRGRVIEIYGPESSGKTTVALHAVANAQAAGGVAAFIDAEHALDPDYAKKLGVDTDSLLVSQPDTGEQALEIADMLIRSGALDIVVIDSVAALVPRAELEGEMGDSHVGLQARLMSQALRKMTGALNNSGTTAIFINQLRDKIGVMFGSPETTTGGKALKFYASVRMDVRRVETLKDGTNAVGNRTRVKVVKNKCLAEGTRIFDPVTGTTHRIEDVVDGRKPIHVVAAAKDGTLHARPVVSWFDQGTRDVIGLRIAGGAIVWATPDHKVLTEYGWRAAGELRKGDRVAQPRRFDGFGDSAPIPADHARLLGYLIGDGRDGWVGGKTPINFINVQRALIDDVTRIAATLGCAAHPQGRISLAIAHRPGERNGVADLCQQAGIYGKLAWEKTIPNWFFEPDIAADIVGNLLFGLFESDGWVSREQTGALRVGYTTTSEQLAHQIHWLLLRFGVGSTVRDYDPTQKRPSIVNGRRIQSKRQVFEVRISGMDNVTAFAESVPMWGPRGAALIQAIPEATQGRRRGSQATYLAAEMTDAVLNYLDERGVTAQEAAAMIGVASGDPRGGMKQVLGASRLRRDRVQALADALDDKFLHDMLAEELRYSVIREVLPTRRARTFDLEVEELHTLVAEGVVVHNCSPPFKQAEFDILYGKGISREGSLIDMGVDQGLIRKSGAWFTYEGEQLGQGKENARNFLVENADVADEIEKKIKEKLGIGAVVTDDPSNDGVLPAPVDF

[12] = inhibitors of PGC1a acetylation in cells, dose response, cell-based, cherry-picked samples (AID 720514); type: functional;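 also: potency may reflect raised or lowered acetylation signal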
[13] = A549 cell cytotoxicity, dose response, cytotoxicity control, plate reader, cherry-pick, antagonist series (AID 743412); type: functional, cell-based
[14] = HepG2 cell cytotoxicity, dose response, cytotoxicity control, plate reader, cherry-pick, antagonist series (AID 743416); type: functional, cell-based
[15] = LGR2 antagonists, dose response, cell-based, HEK293, CRE-luciferase reporter, cherry pick, set 2 (AID 743343); type: functional;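 also: transfected cells were stimulated with diluted bursicon conditioned medium after compound addition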
[16] = MC4R antagonists, dose response, counter-screen for LGR2 antagonist project, cell-based, plate reader, cherry pick (AID 743444); type: functional;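 also: transfected HEK 293 cells stimulated with alpha-MSH peptide; potency of inhibitors of the alpha-MSH evoked signal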
[17] = HEK293 cell cytotoxicity, dose response, cytotoxicity control, plate reader, cherry-picked samples (AID 743446); type: functional, cell-based
[18] = inhibitors of Bluetongue virus cytopathic effect, confirmation, arbovirus, BSR cells (AID 1250); type: functional;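 also: protection from viral cytopathic effect measured as cell viability by ATP luminescence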
[19] = target: Neuropeptide Y receptor type 2 (Homo sapiens, UniProt P49146); test: NPY-Y2 antagonist potency, selectivity check, dose response, counter-screen for NPY-Y1 antagonist project, cell-based (AID 1278); type: functional
[20] = target: 5-hydroxytryptamine receptor 1E (Homo sapiens, UniProt P28566); test: Counterscreen assay for S1P3 antagonists: Dose response cell-based high throughput screening assay to identify antagonists of the 5-Hydroxytryptamine Receptor Subtype 1E (5HT1E). [Related pubchem assays: 1429, 485 ]; type: functional
[21] = target: Sphingosine 1-phosphate receptor 3 (Homo sapiens, UniProt Q99500); test: Dose response cell-based high throughput screening assay for antagonists of the Sphingosine 1-Phosphate Receptor 3 (S1P3). [Related pubchem assays: 1429, 485 ]; type: functional
Oxytocin receptor = Oxytocin receptor (Homo sapiens, UniProt P30559); test: Fluorescence-based cell-based high throughput dose response assay for potentiators of Oxytocin Receptor (OXTR). [Related pubchem assays: 434985 (Confirmation screen (OXTR potentiators in triplicate)), 2481 (Summary (OXTR potentiators)), 2445 (Primary screen (OXTR potentiators in singlicate))]; type: functional
[22] = tested on: Streptococcus sp. 'group A'; test: growth inhibition of control SK(-) GAS strain, dose response, counter-screen for streptokinase expression inhibitor project, luminescence, kanamycin, BacTiterGlo, confirmation (AID 1900); type: functional, organism-based
[23] = enhancers of respiration in Yfh1-depleted yeast, dose response, Friedreich's ataxia, plus single-dose screen (AID 1465); type: functional;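 also: yeast depleted of Yfh1p frataxin homolog grown on glycerol needing respiration; WST-1 tetrazolium dye reduction as measure of cellular dehydrogenase metabolic activity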
Streptococcus = test: Group A Streptococcus viability loss, dose response, counter-screen for streptokinase expression inhibitor project, luminescence, BacTiterGlo (AID 1915); type: functional, organism-based;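 also: potency for reduction of bacterial viability or growth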
Nonstructural protein 1 = Nonstructural protein 1 (Influenza A virus, UniProt Q194T2); type: functional, Influenza A virus (A/California/07/2009(H1N1))
Leucine aminopeptidase = target: T6, Leucine aminopeptidase (Plasmodium falciparum 3D7, UniProt Q8IL11); test: P. falciparum M17LAP inhibitors, primary screen, biochemical, fluorogenic H-Leu-NHMec substrate, 1536-well (AID 1619); type: functional
T6 sequence (Q8IL11 whole entry): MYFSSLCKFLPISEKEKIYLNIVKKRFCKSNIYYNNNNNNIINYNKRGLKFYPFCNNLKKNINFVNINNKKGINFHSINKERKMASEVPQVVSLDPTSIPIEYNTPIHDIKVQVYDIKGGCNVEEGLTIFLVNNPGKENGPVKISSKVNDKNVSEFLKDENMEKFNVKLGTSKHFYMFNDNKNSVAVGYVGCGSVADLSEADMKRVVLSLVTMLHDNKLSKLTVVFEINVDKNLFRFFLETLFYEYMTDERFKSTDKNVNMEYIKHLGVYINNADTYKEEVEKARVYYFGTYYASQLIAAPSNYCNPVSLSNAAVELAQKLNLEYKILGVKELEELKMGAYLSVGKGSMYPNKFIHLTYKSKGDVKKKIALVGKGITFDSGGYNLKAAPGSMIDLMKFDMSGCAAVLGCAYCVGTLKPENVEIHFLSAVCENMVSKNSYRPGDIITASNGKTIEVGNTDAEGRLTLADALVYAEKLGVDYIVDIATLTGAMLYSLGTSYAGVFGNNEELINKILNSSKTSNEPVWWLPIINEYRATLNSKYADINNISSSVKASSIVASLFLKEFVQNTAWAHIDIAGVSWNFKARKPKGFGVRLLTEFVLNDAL

Aspartyl aminopeptidase = Aspartyl aminopeptidase (Plasmodium falciparum 3D7, UniProt Q8I2J3); test: Counterscreen for inhibitors of M1 and M17 aminopeptidases: QFRET-based biochemical high throughput dose response assay for inhibitors of the Plasmodium falciparum M18 Aspartyl Aminopeptidase (PFM18AAP). [Related PubChem assays: 1619 (Screening assay (M17LAP inhibitors).), 1445 (Screening assay (M1AAP inhibitors).)]
Procathepsin L = Procathepsin L (Homo sapiens, UniProt P07711); test: cathepsin L inhibitors, dose response, counter-screen for M1/M17 aminopeptidase inhibitor project, biochemical, QFRET, 1536-well (AID 2214)
Sequence of Procathepsin L (P07711 whole entry): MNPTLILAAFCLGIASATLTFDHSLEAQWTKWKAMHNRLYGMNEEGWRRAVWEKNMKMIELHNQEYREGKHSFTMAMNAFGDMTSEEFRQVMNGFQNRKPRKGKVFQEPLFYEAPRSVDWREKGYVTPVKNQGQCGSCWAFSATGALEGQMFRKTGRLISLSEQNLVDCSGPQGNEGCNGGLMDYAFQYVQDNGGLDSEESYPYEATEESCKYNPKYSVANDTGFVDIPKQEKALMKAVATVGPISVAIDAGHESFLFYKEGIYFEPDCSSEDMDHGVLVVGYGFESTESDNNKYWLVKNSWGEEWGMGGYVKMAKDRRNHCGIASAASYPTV

T1 sequence (Q8VNN2 whole entry): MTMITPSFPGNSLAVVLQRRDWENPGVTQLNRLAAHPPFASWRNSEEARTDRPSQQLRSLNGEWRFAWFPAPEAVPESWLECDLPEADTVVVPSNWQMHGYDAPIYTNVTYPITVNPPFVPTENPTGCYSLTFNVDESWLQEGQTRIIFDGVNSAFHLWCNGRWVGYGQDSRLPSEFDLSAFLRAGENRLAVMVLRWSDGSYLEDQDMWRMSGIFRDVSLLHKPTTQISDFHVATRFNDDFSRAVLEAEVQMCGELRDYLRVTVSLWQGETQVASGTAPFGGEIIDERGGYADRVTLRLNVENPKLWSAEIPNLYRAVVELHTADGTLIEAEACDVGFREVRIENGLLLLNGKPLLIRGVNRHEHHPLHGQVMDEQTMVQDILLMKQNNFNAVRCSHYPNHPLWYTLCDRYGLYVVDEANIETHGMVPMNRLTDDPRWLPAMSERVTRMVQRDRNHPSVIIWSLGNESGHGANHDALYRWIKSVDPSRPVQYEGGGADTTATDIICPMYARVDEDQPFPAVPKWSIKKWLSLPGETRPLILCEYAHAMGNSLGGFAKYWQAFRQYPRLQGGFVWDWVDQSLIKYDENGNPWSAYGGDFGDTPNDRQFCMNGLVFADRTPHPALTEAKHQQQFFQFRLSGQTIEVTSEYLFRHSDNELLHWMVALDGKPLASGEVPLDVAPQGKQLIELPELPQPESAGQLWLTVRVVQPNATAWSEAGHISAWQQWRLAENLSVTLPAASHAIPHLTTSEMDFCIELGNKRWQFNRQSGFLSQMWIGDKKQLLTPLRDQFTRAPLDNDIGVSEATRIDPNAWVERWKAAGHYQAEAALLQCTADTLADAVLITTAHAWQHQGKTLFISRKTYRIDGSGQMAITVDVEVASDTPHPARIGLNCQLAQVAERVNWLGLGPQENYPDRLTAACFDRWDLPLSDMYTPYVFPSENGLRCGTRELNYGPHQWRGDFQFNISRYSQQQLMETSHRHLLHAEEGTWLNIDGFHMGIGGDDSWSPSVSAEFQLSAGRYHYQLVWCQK
T3 sequence (P41145 whole entry): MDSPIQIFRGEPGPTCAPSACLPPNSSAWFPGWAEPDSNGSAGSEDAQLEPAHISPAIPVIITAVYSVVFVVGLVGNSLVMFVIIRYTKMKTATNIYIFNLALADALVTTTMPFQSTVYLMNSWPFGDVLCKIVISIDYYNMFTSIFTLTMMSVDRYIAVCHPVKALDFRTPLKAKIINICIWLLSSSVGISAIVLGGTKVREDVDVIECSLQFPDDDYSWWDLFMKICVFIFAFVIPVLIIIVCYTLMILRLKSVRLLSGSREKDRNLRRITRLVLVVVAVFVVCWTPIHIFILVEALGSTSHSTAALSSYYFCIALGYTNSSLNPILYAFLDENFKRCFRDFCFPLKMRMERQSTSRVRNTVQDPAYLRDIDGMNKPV
Sequence of Aspartyl aminopeptidase (Q8I2J3 whole entry): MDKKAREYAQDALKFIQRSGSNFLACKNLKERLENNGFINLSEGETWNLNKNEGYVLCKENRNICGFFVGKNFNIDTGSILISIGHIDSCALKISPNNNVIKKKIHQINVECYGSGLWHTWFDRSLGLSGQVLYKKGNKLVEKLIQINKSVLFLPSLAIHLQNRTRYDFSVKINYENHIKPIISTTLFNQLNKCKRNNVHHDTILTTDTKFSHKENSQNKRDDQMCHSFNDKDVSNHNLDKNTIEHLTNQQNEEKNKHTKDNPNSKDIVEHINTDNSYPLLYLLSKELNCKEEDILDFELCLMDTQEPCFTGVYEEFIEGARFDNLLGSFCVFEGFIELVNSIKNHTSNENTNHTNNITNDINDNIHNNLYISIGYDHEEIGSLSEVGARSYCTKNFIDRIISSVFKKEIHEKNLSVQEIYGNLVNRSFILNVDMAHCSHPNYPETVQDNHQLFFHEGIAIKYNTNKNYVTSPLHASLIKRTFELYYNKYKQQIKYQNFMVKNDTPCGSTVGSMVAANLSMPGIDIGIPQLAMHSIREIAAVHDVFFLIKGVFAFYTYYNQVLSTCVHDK
Sequence of Sphingosine 1-phosphate receptor 1 (P21453 whole entry): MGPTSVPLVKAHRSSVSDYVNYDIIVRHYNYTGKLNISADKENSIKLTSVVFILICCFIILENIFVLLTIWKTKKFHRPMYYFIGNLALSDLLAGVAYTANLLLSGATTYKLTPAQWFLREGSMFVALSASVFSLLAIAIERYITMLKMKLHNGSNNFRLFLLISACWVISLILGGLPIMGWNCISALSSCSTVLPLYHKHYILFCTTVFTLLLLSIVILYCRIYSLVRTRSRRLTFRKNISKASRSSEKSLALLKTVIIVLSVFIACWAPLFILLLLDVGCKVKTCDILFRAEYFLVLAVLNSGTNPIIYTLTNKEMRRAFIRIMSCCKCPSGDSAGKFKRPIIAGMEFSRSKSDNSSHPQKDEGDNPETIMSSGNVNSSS
Sequence of Sphingosine 1-phosphate receptor 3 (Q99500 whole entry): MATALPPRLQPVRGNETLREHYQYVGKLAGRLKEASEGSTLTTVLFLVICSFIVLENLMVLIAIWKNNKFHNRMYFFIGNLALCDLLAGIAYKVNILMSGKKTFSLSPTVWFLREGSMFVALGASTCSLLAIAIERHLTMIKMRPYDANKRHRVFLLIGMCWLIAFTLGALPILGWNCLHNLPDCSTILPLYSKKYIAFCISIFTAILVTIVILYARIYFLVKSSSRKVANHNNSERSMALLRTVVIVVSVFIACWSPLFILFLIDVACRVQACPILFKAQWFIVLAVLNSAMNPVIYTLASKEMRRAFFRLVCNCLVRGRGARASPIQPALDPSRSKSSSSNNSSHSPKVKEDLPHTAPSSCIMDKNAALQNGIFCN
Sequence of Neuropeptide Y receptor type 2 (P49146 whole entry): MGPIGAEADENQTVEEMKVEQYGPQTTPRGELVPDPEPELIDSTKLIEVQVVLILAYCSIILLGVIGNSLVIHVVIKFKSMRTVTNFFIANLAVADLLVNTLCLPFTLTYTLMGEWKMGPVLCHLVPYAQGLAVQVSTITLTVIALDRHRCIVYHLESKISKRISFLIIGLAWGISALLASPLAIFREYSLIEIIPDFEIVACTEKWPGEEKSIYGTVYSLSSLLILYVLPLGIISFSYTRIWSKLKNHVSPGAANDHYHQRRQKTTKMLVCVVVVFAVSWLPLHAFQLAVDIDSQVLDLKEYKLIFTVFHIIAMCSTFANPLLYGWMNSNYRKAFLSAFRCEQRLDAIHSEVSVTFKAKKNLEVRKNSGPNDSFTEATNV
Sequence of 5-hydroxytryptamine receptor 1E (P28566 whole entry): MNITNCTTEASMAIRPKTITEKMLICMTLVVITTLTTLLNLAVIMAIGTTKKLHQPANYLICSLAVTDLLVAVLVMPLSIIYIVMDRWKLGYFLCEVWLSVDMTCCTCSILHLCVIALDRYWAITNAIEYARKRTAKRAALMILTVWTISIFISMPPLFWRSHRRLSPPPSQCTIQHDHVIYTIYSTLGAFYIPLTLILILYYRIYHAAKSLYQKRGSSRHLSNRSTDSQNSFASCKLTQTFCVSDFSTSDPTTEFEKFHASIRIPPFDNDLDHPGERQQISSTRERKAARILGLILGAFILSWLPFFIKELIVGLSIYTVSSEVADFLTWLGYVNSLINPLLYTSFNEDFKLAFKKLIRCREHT
Sequence of Oxytocin receptor (P30559 whole entry): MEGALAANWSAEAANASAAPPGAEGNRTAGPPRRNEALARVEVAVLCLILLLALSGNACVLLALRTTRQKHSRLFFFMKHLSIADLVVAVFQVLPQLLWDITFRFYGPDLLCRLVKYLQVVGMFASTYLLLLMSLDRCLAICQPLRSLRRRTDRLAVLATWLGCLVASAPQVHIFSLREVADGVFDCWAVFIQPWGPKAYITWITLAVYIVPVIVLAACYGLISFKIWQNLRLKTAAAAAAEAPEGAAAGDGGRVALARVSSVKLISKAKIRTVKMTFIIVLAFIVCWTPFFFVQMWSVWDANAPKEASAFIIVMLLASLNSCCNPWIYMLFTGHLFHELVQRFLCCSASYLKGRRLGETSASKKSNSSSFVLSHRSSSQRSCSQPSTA
Sequence of Sphingosine 1-phosphate receptor 4 (O95977 whole entry): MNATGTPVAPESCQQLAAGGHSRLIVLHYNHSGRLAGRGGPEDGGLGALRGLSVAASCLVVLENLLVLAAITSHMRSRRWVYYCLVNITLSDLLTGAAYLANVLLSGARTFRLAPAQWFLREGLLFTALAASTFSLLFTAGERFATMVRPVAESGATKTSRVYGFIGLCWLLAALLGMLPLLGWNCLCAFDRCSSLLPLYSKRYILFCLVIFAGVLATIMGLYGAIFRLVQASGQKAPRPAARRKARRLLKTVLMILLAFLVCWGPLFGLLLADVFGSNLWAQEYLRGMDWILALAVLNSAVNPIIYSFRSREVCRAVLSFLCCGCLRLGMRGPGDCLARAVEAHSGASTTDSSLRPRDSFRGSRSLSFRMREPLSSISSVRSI
Sequence of Nonstructural protein 1 (Q194T2 whole entry): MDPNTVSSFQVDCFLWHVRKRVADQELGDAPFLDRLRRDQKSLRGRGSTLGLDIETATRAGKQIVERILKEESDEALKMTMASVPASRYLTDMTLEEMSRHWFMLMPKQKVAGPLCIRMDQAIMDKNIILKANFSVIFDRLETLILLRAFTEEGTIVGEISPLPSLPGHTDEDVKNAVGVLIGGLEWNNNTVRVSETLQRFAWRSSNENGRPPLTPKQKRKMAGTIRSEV

With `CC(C)(C)c1ccc(-n2nc(C#N)c(Cl)cc2=O)cc1` as the molecule, how does the EC50 [1] read?
The EC50 was 5.04 µM (inconclusive).

What about the CC50 (HeLa) of the same molecule?
Its CC50 is > 3.67 µM (not active).

And the EC50 (Beta-galactosidase [2])?
Its EC50 is > 40 µM (inactive).

What about the EC50 [3] of the same molecule?
Its EC50 is > 38 µM (not active).

And the IC50 [4]?
Its IC50 is 38.5 µM (not active).

And the IC50 [5]?
The IC50 was 3.68 µM (active).

And the EC50 (Beta-galactosidase [6])?
Its EC50 is > 31.5 µM (inactive).

What about the IC50 [7] of the same molecule?
The IC50 was 1.87 µM (active).

What about the pIC50 [8] of the same molecule?
The pIC50 was 5.40.

What about the IC50 [9] of the same molecule?
The IC50 was 9.04 µM (active).

What about the AC50 [10] of the same molecule?
The AC50 was 0.746 µM (active).

What about the AC50 [11] of the same molecule?
Its AC50 is 3.8 µM (active).

What about the EC50 (BJ) of the same molecule?
The EC50 was 1.13 µM (active).

What about the EC50 (Protein RecA) of the same molecule?
Its EC50 is 0.989 µM (active).

And the AC50 [12]?
The AC50 was 2.85 µM (active).

What about the AC50 [13] of the same molecule?
The AC50 was 2.83 µM (active).

What about the AC50 [14] of the same molecule?
The AC50 was 2.81 µM (active).

And the AC50 [15]?
The AC50 was 12 µM (active).

And the AC50 [16]?
Its AC50 is 14.4 µM (active).

What about the AC50 [17] of the same molecule?
Its AC50 is 6.44 µM (active).

For `CCOc1ccc(-n2c(SCC(=O)Nc3cc(OC)c([N+](=O)[O-])cc3C)nc3ccccc32)cc1`, which IC50 [18] is on record?
The IC50 was 43 µM (active).

What does the source list for `Cc1cc(C(=O)CSc2nc3ccccc3c(=O)n2C)c(C)n1CC1CCCO1` (configuration not stated)?
IC50 [19]: > 35 µM (not active); IC50 [20]: > 50 µM (not active); IC50 [21]: > 50 µM (not active)

With `CCOc1ccc(-c2c(C(=O)N/N=C/c3ccc(Cl)cc3)nnn2-c2nonc2N)cc1` as the molecule, how does the EC50 (Oxytocin receptor) read?
The EC50 was > 29.9 µM (not active).

For `COc1cc([N+](=O)[O-])cc(/C=N/NC(=O)c2ccc(C)nc2)c1O`, which EC50 [22] is on record?
The EC50 was 2.62 µM (active).

What about the EC50 [23] of the same molecule?
The EC50 was > 100 µM (active).

And the EC50 (Streptococcus)?
Its EC50 is 2.22 µM (active).

What about the IC50 (Nonstructural protein 1) of the same molecule?
The IC50 was 5.49 µM (active).

Which results are given for `N#Cc1c(NC(=O)C2CC=CCC2C(=O)O)sc2c1CCCCCC2` (configuration not stated)?
IC50 (Leucine aminopeptidase): < 1 µM (active); IC50 (Aspartyl aminopeptidase): > 73.5 µM (not active); IC50 (Procathepsin L): > 59.6 µM (not active)

Source: ChEMBL document CHEMBL1201862, “PubChem BioAssay data set” (2004)
